Laboratory results as given in publication PMC5526551, “New hydrazonoindolin-2-ones: Synthesis, exploration of the possible anti-proliferative mechanism of action and encapsulation into PLGA microspheres” (PLoS ONE, 2017).
Like-named read-outs stand apart in the source and are kept apart here.

How the values were obtained:
[1] = test system: HT-29, ZR-75 and A-549 cell lines; assay: Average anti-proliferative activity over the three cancer cell lines; format: cell-based, human; conditions: average of HT-29, ZR-75, A-549; for inhibition at 30 µM: read-out: Average Growth Inhibition %; for inhibition at 30 µM / Average Growth Inhibition %: 30 μM
Experimental: (§1) Twenty compounds, i.e. 4a-o and 7a-e, were analyzed for cancer cell growth inhibitory activity. These studies were carried out using cells derived from human lung, colon and breast tumors (A549, HT-29 and ZR-75 cells, respectively). This initial assessment of activity tested each compound in quadruplicate at a single concentration of 30 μM, if solubility permitted.
Therefore, they were subjected to quantitative inhibitory concentration 50% (IC50) determination for their cell growth inhibitory activity towards the A549, HT-29 and ZR-75 cancer cell lines.
(§2) A549, HT-29, ZR-75 were obtained from the American Type Culture Collection (ATCC). Cells were harvested from 90-95% confluent 10 cm dishes, and diluted in growth media (RPMI-1640 supplemented with 5% fetal bovine serum). An appropriate concentration of cells were prepared to add 1,250 cells in a volume of 25 µL per well in tissue culture treated Griener 384-well microplates, then incubated overnight at 37°C. Compound 7e was diluted to a concentration of 30 µM in DMSO. Concentrated dosing solutions of twice the final concentration were prepared by dilution of the DMSO stocks 1:500 in growth media. Two-fold serial dilutions were then prepared in medium containing 0.2% DMSO to maintain a constant concentration of vehicle throughout the concentration range of the compound. Each of these was added in an equal volume (25 µL) to four wells on each cell assay plate, along with the vehicle control. The highest concentration for serial dilutions of the positive control (sunitinib) was prepared exactly as the experimental compound 7e. Cells were incubated with the compounds for a further 72 h.
(§3) The potency of compounds was determined using the non-linear dose response algorithm (four-parameter logistic fit) with GraphPad Prism 5 software.

[2] = test system: ZR-75; assay: Anti-proliferative activity, cell growth inhibition (CellTiterGlo, 72 h); format: cell-based, human; conditions: for inhibition at 30 µM: ZR75, read-out: Cell growth inhibitory activity, ZR-75
Experimental: as §1, §2
(§4) At the end of the treatment period, assay plates were allowed to cool to RT for 10 min prior to the addition of 25 µL per well Promega CellTiterGlo reagent, followed by additional 10 min incubation at RT. The resulting luminescence was quantitated using a Molecular Devices Spectramax Paradigm.
(§5) Percent growth inhibition was calculated as follows, where 100 represents the viability of vehicle treated control samples:
as §3

[3] = test system: HT-29; assay: as above; format: cell-based, human; conditions: for inhibition at 30 µM: HT-29, read-out: Cell growth inhibitory activity, HT-29; for IC50: 72 h
Experimental: as §1, §2, §4, §5, §3

[4] = test system: A549; assay: as above; format: cell-based, human; conditions: for inhibition at 30 µM: A549, read-out: Cell growth inhibitory activity, A-549; for IC50: read-out: IC50 A-549
Experimental: as §1, §2, §4, §5, §3

[5] = molecular target: glycogen synthase kinase 3 beta (GSK-3β); conditions: read-out: IC50 GSK-3β; binding to the ATP pocket; cited from earlier work
[6] = test system: cyclin-dependent kinases (CDKs); conditions: read-out: IC50 CDKs; binding to the ATP pocket; cited from earlier work
[7] = test system: NCI cell lines; design: method as in PMID 17073710, PMID 16860559; conditions: against 46 out of 53 NCI cell lines; cited from earlier work
[8] = Homo sapiens, 30 μM, quadruplicate

Row | SMILES | melting point [°C] | inhibition at 30 µM ([1]; Homo sapiens) [%] | inhibition at 30 µM [2, 8] [%] | inhibition at 30 µM [3, 8] [%] | inhibition at 30 µM [4, 8] [%] | further results
1 | O=C1Nc2ccccc2/C1=C1/Nc2ccccc2C1=O [indirubin, Indirubin] |  |  |  |  |  | IC50 [5]: […]; IC50 [6]: 75 µM
2 | CN1C(=O)C(=NN=C2C(=O)Nc3ccc(Cl)cc32)c2ccccc21 [Compound 7b, 5-Chloro-3-((methyl-2-oxoindolin-3-ylidene)hydrazono)indolin-2-one] |  |  |  |  |  | Average Growth Inhibition % [1]: 95.4%; IC50 [1]: 4.77 µM; Cell growth inhibitory activity, ZR-75 ([2]; 30 μM, quadruplicate): 95.5 ± 6.0%; IC50 ([2]; 72 h): 3.75 µM; Cell growth inhibitory activity, HT-29 ([3]; 30 μM, quadruplicate): 95.5 ± 3.4%; IC50 [3]: 5.38 µM; Cell growth inhibitory activity, A-549 ([4]; 30 μM, quadruplicate): 95.2 ± 2.8%; IC50 ([4]; 72 h): 5.19 µM
3 | COc1ccc(C=NN=C2C(=O)Nc3ccc(Cl)cc32)cc1O [Compound 4g, 5-Chloro-3-((3-hydroxy-4-methoxybenzylidene)hydrazono)indolin-2-one] | 278 to 280 | 41.2 | 46 ± 6.4 | 33.5 ± 11.3 | 44.2 ± 16.5 | 
4 | COc1ccc(C=NN=C2C(=O)Nc3ccccc32)cc1O [Compound 4b, 3-((3-Hydroxy-4-methoxybenzylidene)hydrazono)indolin-2-one] | 273 to 275 | 69.2 | 59.3 ± 11.1 | 81.9 ± 3 | 66.3 ± 5.7 | 
5 | COc1ccc(C=NN=C2C(=O)Nc3ccccc32)cc1OC [Compound 4d, 3-((3,4-Dimethoxybenzylidene)hydrazono)indolin-2-one] | 276 to 278 | 74.3 | 58.8 ± 4.3 | 81.7 ± 5.2 | 82.5 ± 6.9 | 
6 | COc1ccc(C=NN=C2C(=O)Nc3ccccc32)cc1 [Compound 4a, 3-((4-Methoxybenzylidene)hydrazono)indolin-2-one] | 277 to 279 | 27.2 | 34.8 ± 23.7 | 19.5 ± 12.4 | 27.1 ± 20.3 | 
7 | COc1ccc(C=NN=C2C(=O)Nc3ccc(Cl)cc32)cc1 [Compound 4f, 5-Chloro-3-((4-methoxybenzylidene)hydrazono)indolin-2-one] | 282 to 284 | 8.4 | 10.9 ± 14 | 6.1 ± 8.6 | 8.4 ± 10 | 
8 | Cc1cc(C)c(/C=C2\C(=O)Nc3ccccc32)[nH]1 [Semaxanib] |  |  |  |  |  | GI50 [7]: < 0.01 µM
9 | COc1cc(C=NN=C2C(=O)Nc3ccccc32)cc(OC)c1OC [Compound 4e, 3-((3,4,5-Trimethoxybenzylidene)hydrazono)indolin-2-one] | 240 to 241 | 87.2 | 86.1 ± 3.8 | 81.9 ± 5.4 | 93.6 ± 3.6 | 
10 | COc1cc(C=NN=C2C(=O)Nc3ccccc32)ccc1O [Compound 4c, 3-((4-Hydroxy-3-methoxybenzylidene)hydrazono)indolin-2-one] |  | 61.5 | 55.4 ± 23.4 | 74.9 ± 5.3 | 54.2 ± 5 | 

The next lines start with results.

Row | melting point [°C] | SMILES | inhibition at 30 µM ([1]; Homo sapiens) [%] | inhibition at 30 µM [2, 8] [%] | inhibition at 30 µM [3, 8] [%] | inhibition at 30 µM [4, 8] [%] | further results
11 | 255 to 257 | O=C1Nc2ccccc2C1=NN=C1C(=O)N(Cc2ccccc2)c2ccccc21 [Compound 7c, 1-Benzyl-3-((oxoindolin-3-ylidene)hydrazono)indolin-2-one] | 84.2 | 92.1 ± 3.8 | 73.8 ± 4.4 | 86.6 ± 9.9 | 
12 | 258 to 260 | O=C1Nc2ccc(Cl)cc2C1=NN=C1C(=O)N(Cc2ccccc2)c2ccccc21 [Compound 7d, 1-Benzyl-3-((5-chloro-2-oxoindolin-3-ylidene)hydrazono)indolin-2-one] | 97.7 | 97.8 ± 1.8 | 97 ± 1.8 | 98.4 ± 0.6 | IC50 ([1]; Homo sapiens): 3.39 µM; IC50 ([2]; Homo sapiens, ZR75, 72 h): 2.42 µM; IC50 [3]: 3.62 µM; IC50 ([3]; Homo sapiens, HT-29, 72 h): 3.82 µM; IC50 ([4]; Homo sapiens, A549, 72 h): 4.13 µM
13 | 245 to 247 | COc1cc(C=NN=C2C(=O)Nc3ccc(Cl)cc32)cc(OC)c1OC [Compound 4j, 5-Chloro-3-((3,4,5-trimethoxybenzylidene)hydrazono)indolin-2-one] | 8.9 | 18.1 ± 21.2 | 6.9 ± 4.2 | 1.7 ± 17.5 | 
14 | 290 to 292 | COc1ccc(C=NN=C2C(=O)Nc3ccc(Br)cc32)cc1 [Compound 4k, 5-Bromo-3-((4-methoxybenzylidene)hydrazono)indolin-2-one] | -4.3 | -5.3 ± 18.1 | -0.6 ± 7.2 | -6.9 ± 9.4 | Average Growth Inhibition % [1]: stimulated the growth
15 | 261 to 263 | COc1cc(C=NN=C2C(=O)Nc3ccc(Br)cc32)cc(OC)c1OC [Compound 4o, 5-Bromo-3-((3,4,5-trimethoxybenzylidene)hydrazono)indolin-2-one] | -0.5 | 3.1 ± 8.2 | -1.1 ± 9 | -3.4 ± 6.6 | Average Growth Inhibition % [1]: stimulated the growth
16 | 278 to 280 | COc1ccc(C=NN=C2C(=O)Nc3ccc(Br)cc32)cc1O [Compound 4l, 5-Bromo-3-((3-hydroxy-4-methoxybenzylidene)hydrazono)indolin-2-one] | 45.6 | 44.3 ± 18.4 | 45.9 ± 9.8 | 46.6 ± 9.5 | 
17 | 282 to 284 | COc1ccc(C=NN=C2C(=O)Nc3ccc(Cl)cc32)cc1OC [Compound 4i, 5-Chloro-3-((3,4-dimethoxybenzylidene)hydrazono)indolin-2-one] | 11.4 | 33 ± 13 | -3.6 ± 9.7 | 4.9 ± 3.3 | 
18 | 280 to 282 | COc1ccc(C=NN=C2C(=O)Nc3ccc(Br)cc32)cc1OC [Compound 4n, 5-Bromo-3-((3,4-dimethoxybenzylidene)hydrazono)indolin-2-one] | 3.5 | 12.5 ± 21.9 | -2 ± 10.2 | 0.1 ± 5.1 | 
19 | 295 to 297 | CN1C(=O)C(=NN=C2C(=O)Nc3ccc(F)cc32)c2ccccc21 [Compound 7a, 5-Fluoro-3-((1-methyl-2-oxoindolin-3-ylidene)hydrazono)indolin-2-one] | 85 | 78.6 ± 9.9 | 84.8 ± 3.6 | 91.6 ± 4.8 | 
20 | 285 to 287 | COc1cc(C=NN=C2C(=O)Nc3ccc(Br)cc32)ccc1O [Compound 4m, 5-Bromo-3-((4-hydroxy-3-methoxybenzylidene)hydrazono)indolin-2-one] | 61.5 | 58.7 ± 16 | 42.1 ± 1.8 | 83.7 ± 10.3 | 
21 | 269 to 271 | COc1cc(C=NN=C2C(=O)Nc3ccc(Cl)cc32)ccc1O [Compound 4h, 5-Chloro-3-((4-hydroxy-3-methoxybenzylidene)hydrazono)indolin-2-one] | 36.6 | 30.9 ± 9.5 | 41.6 ± 10.4 | 37.3 ± 8.1 | 
